From patent publication US20210244773A1, “DENTAL PULP STEM CELLS AND USES THEREOF” (priority 2018, published 2021)
“And” between values parts separate entries of the source, which are not always exact repeats. Equal entries are not always repeated.

Key:
Format in all cases: cell-based, human
DPSC = DPSC neuronal differentiation with TNF-alpha, lipoxin A4 or resolvin D1, flow cytometry (Example 3); details: for TNF-alpha-induced decrease in β III-tubulin expression: FIG. 6, both 10 and 100 nM, p<0.05; for neuronal differentiation of DPSC without TNF-alpha: added alone at either dose (10 or 100 nM), data not shown
Procedure: DPSC were isolated from the teeth of 7 healthy donors extracted during routine dental care. Samples were selected from our tooth biorepository based on the following donor characteristics: absence of medical comorbidities, no active medication use (aside from vitamin supplements), and absence of periodontal disease or tooth decay. The extracted pulp were plated and then cultured in basal medium, DMEM/F12+15% FBS supplemented with 100 U/mL non-essential amino acids (Gibco Life Technologies), 100 U/mL penicillin and streptomycin, and glutamine (Gibco Life Technologies). Outgrowing fibroblast-like cells appeared after 3-4 days and at that point the pulp was replated. The outgrowing cells were passaged after reaching 80% confluence and passage 4 was used for all experiments. Cells were seeded in duplicate with 2×10^4 cells/well. Neuronal differentiation was induced by replacing DMEM/F12+15% FBS culture media with neuronal differentiation media (NeuroCult NS-A Differentiation Kit-Human, StemCell Technologies Inc., Tukwila, Wash., USA) 48 hours after seeding. Cells were cultured under neuronal induction conditions for up to 21 days with culture media changed twice a week.
Varying concentrations of TNF-alpha (1, 10, 25, and 100 ng/mL, PeproTech, Rocky Hill, N.J., USA), lipoxin A4 (10 and 100 nM, Cayman Chemical, Ann Arbor, Mich., […], Cayman Chemical, Ann Arbor, Mich., USA) were added to the culture of both differentiated and non-differentiated cells starting 48 hours after seeding. In some experiments cells were treated with both TNF-alpha and lipoxin A4 or resolvin D1.
Expression of stem cell and neuronal cell markers was determined by flow cytometry. […] Cells were incubated for 1 hour at room temperature with the following primary antibodies against stem cell markers: rabbit anti-CD44 (Abcam, 1:30) and rabbit anti-OCT4 (Abcam, 1:200) and neuronal markers: rabbit anti-nestin (Abcam, 1:100), rabbit anti-doublecortin (Abcam, 1:50), mouse anti-β III-tubulin (Abcam, 1:100), and rabbit anti-NeuN (Abcam, 1:100). Fluorescence was achieved by incubating with secondary antibodies (Life Tech, Carlsbad, Calif., goat anti-rabbit IgG or goat anti-mouse IgG, dilution 1:500) for 1 hour at room temperature in a dark room. Cells were then subjected to flow cytometry and the percentage of cells expressing each marker was calculated.
Each analysis was performed in duplicate using cells from all donors. Median and interquartile ranges were calculated for each condition. Mann-Whitney tests were used for all statistical analyses; p<0.05 was considered significant.

dental pulp stem cells = assay: MTT metabolic activity assay of dental pulp stem cells
Procedure: The metabolic activity of cells was determined by 3-(4,5-dimethylthiazol-2-yl)-2,5-diphenyltetrazolium bromide (MTT) assay at various time points to assess TNF-α toxicity on dental pulp stem cells. Cells were incubated for 4 hours in 5 mg/mL thiazolyl blue tetrazolium bromide (Sigma Aldrich, St. Louis, Mo., USA), the precipitate was suspended with 2-propanol (Sigma Aldrich, St. Louis, Mo., USA), and absorbance was determined in triplicate.

[1] = system: DPSC expression of IL-6, IL-8, IL-1β; assay: Inflammatory cytokine gene expression in DPSC by real-time PCR; details: all doses (1, 10, 25, 100 ng/ml), 24 hours
Procedure: Induction of inflammatory cytokine gene expression was determined by real-time PCR to optimize TNF-α treatment conditions. Total RNA was extracted from cells using Trizol (Life Technologies). 10 μL total RNA was reverse transcribed to cDNA using iScript cDNA Synthesis Kit (Bio-Rad, Hercules, Calif., USA). 1 μL cDNA used as template for real-time PCR amplification reactions using the iQ SYBR Green Supermix (Bio-Rad) in combination with […] of each gene-specific primer, according to manufacturer's instructions. Glyceraldehyde 3-phosphate dehydrogenase (GAPDH) was used as endogenous control. PCR reactions were conducted in duplicate using the following conditions: initial denaturation for 3 min at 95° C. followed by 40 cycles of 15 sec denaturation at 95° C. and 60 sec annealing at 60° C. Relative quantification was used for statistical analyses. The following primers were used: […]

[2] = 25 ng/ml TNF-alpha, 21 days of differentiation, versus absence of TNF-alpha

Compound	increase in β III-tubulin expression versus TNF-alpha alone (DPSC; 25 ng/ml TNF-alpha + 100 nM resolvin D1, p=0.02) [%]	β III-tubulin expression (percent of cells) (DPSC; 25 ng/ml TNF-alpha + 100 ng/ml resolvin D1) [%]	β III-tubulin expression versus TNF-alpha alone (DPSC; 25 ng/ml TNF-alpha + resolvin D1 10 nM, p=0.09)	TNF-alpha-induced decrease in β III-tubulin expression (DPSC)	neuronal differentiation of DPSC without TNF-alpha (DPSC)	cells expressing the early marker doublecortin (DPSC; 25 ng/ml TNF-alpha, 21 days of differentiation)	expression of early neuronal marker nestin (DPSC; [2])	expression of stem cell marker CD44 (DPSC; [2])	expression of stem cell marker OCT 3/4 (DPSC; [2])	decrease in differentiated cells expressing β III-tubulin (DPSC; 25 ng/ml TNF-alpha, neuronal differentiation, decrease)	β-III tubulin expression (DPSC; FIG. 6, presence of TNF-alpha)	β III-tubulin expression (percent of cells) (DPSC; neural induction with 25 ng/ml TNF-alpha alone) [%]	toxicity to DPSC (succinic dehydrogenase metabolic activity) (dental pulp stem cells; TNF-alpha treatment)	metabolic activity (MTT) (dental pulp stem cells; neural induction with 25 ng/ml or 100 ng/ml TNF-alpha, 10 days, versus absence of TNF-alpha)	DPSC expression of IL-6 ([1]; FIG. 4A)	DPSC expression of IL-8 ([1]; FIG. 4B)	DPSC expression of IL-1β ([1]; FIG. 4C)	β III-tubulin expression (percent of cells) (DPSC; 25 ng/ml TNF-alpha + 10 nM lipoxin A4) [%]	increase in β III-tubulin expression versus TNF-alpha alone (DPSC; 25 ng/ml TNF-alpha + 10 nM lipoxin A4, p=0.02) [%]	β III-tubulin expression versus TNF-alpha alone (DPSC; 25 ng/ml TNF-alpha + lipoxin A4 100 nM, p=0.03)
CC/C=C\C[C@H](O)/C=C/C=C\C=C\C=C\[C@@H](O)[C@@H](O)C/C=C\CCC(=O)O [resolvin D1]	78	57	approached significance	mitigated	no reduction or improvement	–	–	–	–	–	–	–	–	–	–	–	–	–	–	–
TNF-alpha	–	–	–	–	–	non-significant increase	no difference	no difference	no difference	70% and 59%	significant decrease	32	not toxic	significantly greater metabolic activity	significant increases	significant increases	significant increases	–	–	–
CCCCC[C@H](O)/C=C/C=C\C=C\C=C\[C@@H](O)[C@@H](O)CCCC(=O)O [lipoxin A4]	–	–	–	mitigated	no reduction or improvement	–	–	–	–	–	–	–	–	–	–	–	–	59	84	Results were similar
